Results from PMC4853478 (Nature Communications, 2016).

Key:
[1] = target: T1, HsPRC2_4 (Homo sapiens, UniProt Q15910); assay: Inhibition of basal and activated states of HsPRC2_4; format: biochemical; settings: for Ki: SAM above Km, mean of two independent experiments
T1 construct: intact HsPRC2_4 (full-length EZH2 (EZH2_FL) and SUZ12 co-migrate on SDS-PAGE); made in house; host or cells: Sf9 insect cells (baculovirus co-infection)

[2] = target: Hs/AcPRC2_X (Anolis carolinensis, UniProt G1KPH4, DEL368-454, form not given); settings: rH3 substrate; n=2, mean±s.d.
[3] = target: T2, HsPRC2_4 (Y111L) (Homo sapiens, UniProt Q15910, Y111L); assay: Radioactive filter-binding histone methyltransferase assay, HsPRC2_4 (Y111L), oligonucleosome substrate; format: biochemical
T2 construct: intact HsPRC2_4 (full-length EZH2 (EZH2_FL) and SUZ12 co-migrate on SDS-PAGE); made in house; host or cells: Sf9 insect cells (baculovirus co-infection)
Excerpt: (§1) (Prism, Graphpad Software Inc.).

[4] = target: T3, HsPRC2_4 (Y641N) (Homo sapiens, UniProt Q15910, Y641N); assay: Radioactive filter-binding histone methyltransferase assay, HsPRC2_4 (Y641N), oligonucleosome substrate; format: biochemical
T3 construct: intact HsPRC2_4 (full-length EZH2 (EZH2_FL) and SUZ12 co-migrate on SDS-PAGE); made in house; host or cells: Sf9 insect cells (baculovirus co-infection)
Excerpt: as §1

[5] = target: T1, HsPRC2_4; assay: Radioactive filter-binding histone methyltransferase assay, intact HsPRC2_4, oligonucleosome substrate; format: biochemical
Excerpt: as §1

[6] = target: T4, HsPRC2_4 (Y641N/Y661D) (Homo sapiens, UniProt Q15910, Y641N/Y661D); assay: Radioactive filter-binding histone methyltransferase assay, HsPRC2_4 (Y641N/Y661D), oligonucleosome substrate; format: biochemical
T4 construct: intact HsPRC2_4 (full-length EZH2 (EZH2_FL) and SUZ12 co-migrate on SDS-PAGE); made in house; host or cells: Sf9 insect cells (baculovirus co-infection)
Excerpt: as §1

[7] = target: PRC2; set-up: method as in PMID 24304166; settings: activated versus basal PRC2; cited from earlier work
[8] = oligonucleosome substrate, n=2, mean±s.d.

T1 sequence (Q15910 whole entry): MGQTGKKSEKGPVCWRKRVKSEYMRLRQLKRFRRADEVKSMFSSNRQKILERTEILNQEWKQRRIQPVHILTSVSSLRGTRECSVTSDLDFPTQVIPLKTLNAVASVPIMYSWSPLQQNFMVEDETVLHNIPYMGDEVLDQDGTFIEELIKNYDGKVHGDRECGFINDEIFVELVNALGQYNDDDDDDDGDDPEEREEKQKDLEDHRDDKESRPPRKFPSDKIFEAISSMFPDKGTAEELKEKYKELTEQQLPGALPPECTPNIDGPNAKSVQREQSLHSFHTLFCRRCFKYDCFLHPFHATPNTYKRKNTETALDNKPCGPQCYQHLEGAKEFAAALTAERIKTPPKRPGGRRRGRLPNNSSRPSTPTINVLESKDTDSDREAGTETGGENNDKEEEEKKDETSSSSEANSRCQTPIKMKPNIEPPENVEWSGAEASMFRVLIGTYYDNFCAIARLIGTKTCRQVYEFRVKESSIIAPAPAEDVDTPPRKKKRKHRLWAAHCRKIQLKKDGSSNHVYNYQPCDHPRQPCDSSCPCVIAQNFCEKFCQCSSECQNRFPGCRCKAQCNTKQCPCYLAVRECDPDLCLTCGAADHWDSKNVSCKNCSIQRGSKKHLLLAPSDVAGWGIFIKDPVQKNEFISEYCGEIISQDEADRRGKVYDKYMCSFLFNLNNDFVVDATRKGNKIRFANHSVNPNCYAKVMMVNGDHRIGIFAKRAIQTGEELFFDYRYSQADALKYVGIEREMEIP
T1 sequence (O75530 whole entry partner): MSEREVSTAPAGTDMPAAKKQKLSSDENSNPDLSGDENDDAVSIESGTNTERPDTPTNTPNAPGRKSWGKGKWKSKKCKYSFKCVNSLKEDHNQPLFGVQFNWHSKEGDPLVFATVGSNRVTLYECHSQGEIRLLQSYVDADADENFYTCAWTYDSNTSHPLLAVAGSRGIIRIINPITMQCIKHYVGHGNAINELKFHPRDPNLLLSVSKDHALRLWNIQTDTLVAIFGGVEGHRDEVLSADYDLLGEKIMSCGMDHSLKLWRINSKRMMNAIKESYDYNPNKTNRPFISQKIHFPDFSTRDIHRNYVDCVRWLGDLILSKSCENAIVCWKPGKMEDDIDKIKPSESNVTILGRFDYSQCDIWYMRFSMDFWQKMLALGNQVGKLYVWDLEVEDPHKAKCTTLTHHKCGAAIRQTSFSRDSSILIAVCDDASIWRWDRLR
T1 sequence (Q15022 whole entry partner): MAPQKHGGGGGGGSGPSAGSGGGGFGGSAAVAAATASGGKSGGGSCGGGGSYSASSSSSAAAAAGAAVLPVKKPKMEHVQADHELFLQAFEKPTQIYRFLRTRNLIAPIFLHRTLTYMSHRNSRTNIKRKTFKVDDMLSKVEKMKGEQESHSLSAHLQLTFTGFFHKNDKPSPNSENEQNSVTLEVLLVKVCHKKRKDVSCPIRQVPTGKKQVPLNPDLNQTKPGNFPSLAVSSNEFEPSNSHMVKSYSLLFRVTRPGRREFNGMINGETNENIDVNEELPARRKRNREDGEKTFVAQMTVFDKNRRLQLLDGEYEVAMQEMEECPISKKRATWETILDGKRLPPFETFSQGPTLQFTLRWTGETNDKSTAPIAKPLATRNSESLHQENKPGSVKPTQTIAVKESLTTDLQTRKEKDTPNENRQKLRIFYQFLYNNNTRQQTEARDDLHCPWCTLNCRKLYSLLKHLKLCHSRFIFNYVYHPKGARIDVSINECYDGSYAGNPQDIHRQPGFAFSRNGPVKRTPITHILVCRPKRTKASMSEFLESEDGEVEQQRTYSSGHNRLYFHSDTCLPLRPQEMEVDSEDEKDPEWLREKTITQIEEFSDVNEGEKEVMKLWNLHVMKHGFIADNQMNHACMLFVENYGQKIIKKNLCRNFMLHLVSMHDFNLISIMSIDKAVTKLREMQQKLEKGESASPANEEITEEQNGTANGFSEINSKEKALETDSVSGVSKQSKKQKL
T1 sequence (Q09028 whole entry partner): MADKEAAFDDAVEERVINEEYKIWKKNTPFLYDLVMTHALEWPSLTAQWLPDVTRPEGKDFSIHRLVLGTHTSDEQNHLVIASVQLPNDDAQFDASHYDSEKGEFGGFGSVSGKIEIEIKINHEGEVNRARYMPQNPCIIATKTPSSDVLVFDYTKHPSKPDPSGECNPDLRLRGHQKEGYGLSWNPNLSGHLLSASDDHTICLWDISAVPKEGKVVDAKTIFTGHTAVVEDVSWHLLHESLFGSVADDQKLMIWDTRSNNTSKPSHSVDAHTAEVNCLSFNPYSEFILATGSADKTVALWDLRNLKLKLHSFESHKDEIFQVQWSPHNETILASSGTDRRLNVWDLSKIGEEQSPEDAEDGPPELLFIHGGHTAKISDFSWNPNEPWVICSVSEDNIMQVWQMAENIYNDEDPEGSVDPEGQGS
T4 sequence (Q15910 whole entry Y641N/Y661D): as the sequence (Q15910 whole entry) above, with Y641N, Y661D counted along it
T4 sequence (O75530 whole entry partner): as the sequence (O75530 whole entry partner) above
T4 sequence (Q15022 whole entry partner): as the sequence (Q15022 whole entry partner) above
T4 sequence (Q09028 whole entry partner): as the sequence (Q09028 whole entry partner) above
T3 sequence (Q15910 whole entry Y641N): as the sequence (Q15910 whole entry) above, with Y641N counted along it
T3 sequence (O75530 whole entry partner): as the sequence (O75530 whole entry partner) above
T3 sequence (Q15022 whole entry partner): as the sequence (Q15022 whole entry partner) above
T3 sequence (Q09028 whole entry partner): as the sequence (Q09028 whole entry partner) above
T2 sequence (Q15910 whole entry Y111L): as the sequence (Q15910 whole entry) above, with Y111L counted along it
T2 sequence (O75530 whole entry partner): as the sequence (O75530 whole entry partner) above
T2 sequence (Q15022 whole entry partner): as the sequence (Q15022 whole entry partner) above
T2 sequence (Q09028 whole entry partner): as the sequence (Q09028 whole entry partner) above
Chain of Hs/AcPRC2_X (G1KPH4 entry or part of it DEL368-454, form open): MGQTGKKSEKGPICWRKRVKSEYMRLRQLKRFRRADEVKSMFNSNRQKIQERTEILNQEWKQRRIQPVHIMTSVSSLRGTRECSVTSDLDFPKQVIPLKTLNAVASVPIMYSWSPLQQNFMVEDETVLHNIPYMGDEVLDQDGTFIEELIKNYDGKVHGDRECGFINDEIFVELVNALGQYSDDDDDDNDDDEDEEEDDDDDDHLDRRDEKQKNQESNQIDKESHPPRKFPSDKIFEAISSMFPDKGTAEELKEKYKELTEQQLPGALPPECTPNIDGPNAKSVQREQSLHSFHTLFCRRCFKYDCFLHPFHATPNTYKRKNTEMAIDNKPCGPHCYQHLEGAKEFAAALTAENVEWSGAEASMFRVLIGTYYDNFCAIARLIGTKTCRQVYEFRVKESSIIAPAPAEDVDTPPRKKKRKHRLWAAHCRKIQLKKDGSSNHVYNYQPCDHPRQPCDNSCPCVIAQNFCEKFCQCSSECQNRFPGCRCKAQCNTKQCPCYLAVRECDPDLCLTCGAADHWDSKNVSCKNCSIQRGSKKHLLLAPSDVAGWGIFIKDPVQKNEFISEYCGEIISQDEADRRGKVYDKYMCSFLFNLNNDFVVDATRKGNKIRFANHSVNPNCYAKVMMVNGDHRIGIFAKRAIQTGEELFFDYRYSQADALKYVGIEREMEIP
Chain of Hs/AcPRC2_X (Q15022 545-726 S583D, form open, further chain): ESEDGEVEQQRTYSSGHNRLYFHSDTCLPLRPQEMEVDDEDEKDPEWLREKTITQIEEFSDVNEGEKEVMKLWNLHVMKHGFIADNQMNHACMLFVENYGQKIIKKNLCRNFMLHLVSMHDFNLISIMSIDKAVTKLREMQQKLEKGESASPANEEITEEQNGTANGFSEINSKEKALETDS
Chain of Hs/AcPRC2_X (O75530 81-441, stated change not applied, form open, further chain): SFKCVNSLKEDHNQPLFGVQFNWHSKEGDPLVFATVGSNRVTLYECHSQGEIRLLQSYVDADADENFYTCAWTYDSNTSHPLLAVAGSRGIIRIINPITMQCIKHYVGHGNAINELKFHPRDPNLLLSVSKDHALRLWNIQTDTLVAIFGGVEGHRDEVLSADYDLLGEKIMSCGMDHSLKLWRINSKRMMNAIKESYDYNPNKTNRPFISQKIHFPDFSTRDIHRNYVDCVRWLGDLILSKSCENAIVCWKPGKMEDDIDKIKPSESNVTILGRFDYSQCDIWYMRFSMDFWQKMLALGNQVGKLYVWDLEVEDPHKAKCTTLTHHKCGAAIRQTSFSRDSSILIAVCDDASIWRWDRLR

`C[S+](CC[C@H](N)C(=O)[O-])C[C@H]1O[C@@H](n2cnc3c(N)ncnc32)[C@H](O)[C@@H]1O` (stereo partly drawn) [SAM, S-adenosyl-L-methionine, reference compound] showed a Km ([1]; intact HsPRC2_4 complex, read-out: Km, SAM) of 1.5 µM.
In the case of `CCc1cc(C)[nH]c(=O)c1CN1CCc2c(Cl)cc(OC3CCN(C(=O)C(C)O)CC3)c(Cl)c2C1=O` (stereo not drawn) [inhibitor 1], the Ki [2] is reported as 3.1 ± 0.11 nM, the Biochemical inhibition ([3]; Y111L HsPRC2_4) is reported as “refractory” and the Ki [3, 8] is reported as 116.4 ± 0.7 nM. For the same compound, the Sensitivity to inhibitor ([4]; Y641N HsPRC2_4) was “sensitive”, the Ki [4, 8] was 4.56 ± 0.16 nM and the “Mode of inhibition (IC50 as a function of (SAM)/Km)” value ([5]; HsPRC2_4, linear relationship of IC50 with (SAM)/Km, two independent experiments) was “SAM-competitive”. For the same compound, the Ki [5, 8] was 1.63 ± 0.13 nM, the Biochemical inhibition ([6]; Y641N/Y661D HsPRC2_4) was “refractory” and the Ki [6, 8] was 204 ± 16 nM. For the same compound, the “Inhibition profile, basal versus stimulated state” value ([1]; basal and stimulated states of HsPRC2_4) was “almost identical”, the Ki ([1]; in the presence of the activator peptide H3K27Me3 (21-44)) was 0.65 nM and the Ki ([1]; no activator) was 0.89 nM.
In the case of `CC[C@H](C)n1cc(C)c2c(C(=O)NCc3c(C)cc(C)[nH]c3=O)cc(-c3ccc(N4CCNCC4)nc3)cc21` [GSK126], the “Ki on activation of PRC2 by H3K27Me3 mark” value [7] is listed as “lower” and the “Residence time on activation of PRC2 by H3K27Me3 mark” value [7] is listed as “increased”.
